Measurements as given in ChEMBL document CHEMBL1201862, “PubChem BioAssay data set” (2004).
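Step 1: Grow cells in 96-well plates. Step 2: Expose to compound for 48 hours at 5 concentrations. Step 3: Interpolate endpoints linearly; if unreached, use highest concentration. GI50: concentration for 50% inhibition of growth.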 Active and inactive are the calls of the source. Cut-off read from the data, not from the text of the source: active = GI50 up to about 1.1 µM and inactive = higher.

Experiments:
Test in all cases: DTP human tumour cell line panel, 48 h
T47D = test system: T47D
OVCAR-3 = test system: OVCAR-3
HCT-15 = test system: HCT-15
DU-145 = test system: DU-145
NCI-H522 = test system: NCI-H522
MOLT-4 = test system: MOLT-4
TK-10 = test system: TK-10
MDA-MB-435 = test system: MDA-MB-435
CAKI-1 = test system: CAKI-1
SW-620 = test system: SW-620
A549 = test system: A549
SK-OV-3 = test system: SK-OV-3
UACC-62 = test system: UACC-62
MDA-N = test system: MDA-N
HCT-116 = test system: HCT-116
SF-268 = test system: SF-268
SK-MEL-28 = test system: SK-MEL-28
OVCAR-5 = test system: OVCAR-5
ACHN = test system: ACHN
SF-539 = test system: SF-539
LOX IMVI = test system: LOX IMVI
NCI/ADR-RES = test system: NCI/ADR-RES
786-0 = test system: 786-0
SK-MEL-2 = test system: SK-MEL-2
SN12C = test system: SN12C
COLO 205 = test system: COLO 205
SNB-19 = test system: SNB-19
HCC 2998 = test system: HCC 2998
HL-60 = test system: HL-60
UACC-257 = test system: UACC-257
K562 = test system: K562
RPMI-8226 = test system: RPMI-8226
HT-29 = test system: HT-29
Hs-578T = test system: Hs-578T
IGROV-1 = test system: IGROV-1
HOP-92 = test system: HOP-92
Malme-3M = test system: Malme-3M
SK-MEL-5 = test system: SK-MEL-5
BT-549 = test system: BT-549
M14 = test system: M14
OVCAR-8 = test system: OVCAR-8
A498 = test system: A498
EKVX = test system: EKVX
MDA-MB-231 = test system: MDA-MB-231
NCI-H23 = test system: NCI-H23
SNB-75 = test system: SNB-75
CCRF-CEM = test system: CCRF-CEM
MCF7 = test system: MCF7
NCI-H460 = test system: NCI-H460
RXF 393 = test system: RXF 393
HOP-62 = test system: HOP-62
KM12 = test system: KM12
PC-3 = test system: PC-3
SR = test system: SR
UO-31 = test system: UO-31
SF-295 = test system: SF-295
U-251 = test system: U-251
OVCAR-4 = test system: OVCAR-4
NCI-H226 = test system: NCI-H226

SMILES: COC(=O)CSSCc1ccc([N+](=O)[O-])cc1
- GI50 (T47D): 24.1 µM (inactive)
- GI50 (OVCAR-3): 18.5 µM (inactive)
- GI50 (HCT-15): 16.7 µM
- GI50 (DU-145): 19.5 µM (inactive)
- GI50 (NCI-H522): 13.4 µM (inactive)
- GI50 (MOLT-4): 3.93 µM (inactive)
- GI50 (TK-10): 16.2 µM (inactive)
- GI50 (MDA-MB-435): 13.9 µM (inactive)
- GI50 (CAKI-1): 2.23 µM (inactive)
- GI50 (SW-620): 12.2 µM (inactive)
- GI50 (A549): 25.5 µM (inactive)
- GI50 (SK-OV-3): 20.8 µM (inactive)
- GI50 (UACC-62): 15.8 µM (inactive)
- GI50 (MDA-N): 14.7 µM (inactive)
- GI50 (HCT-116): 12.2 µM (inactive)
- GI50 (SF-268): 21.8 µM (inactive)
- GI50 (SK-MEL-28): 18 µM (inactive)
- GI50 (OVCAR-5): 19.4 µM (inactive)
- GI50 (ACHN): 16.3 µM (inactive)
- GI50 (SF-539): 18.2 µM (inactive)
- GI50 (LOX IMVI): 12.8 µM (inactive)
- GI50 (NCI/ADR-RES): 20.9 µM (inactive)
- GI50 (786-0): 19 µM (inactive)
- GI50 (SK-MEL-2): 18.1 µM (inactive)
- GI50 (SN12C): 14.8 µM (inactive)
- GI50 (COLO 205): 18.7 µM (inactive)
- GI50 (SNB-19): 26.8 µM (inactive)
- GI50 (HCC 2998): 21.4 µM (inactive)
- GI50 (HL-60): 21.1 µM (inactive)
- GI50 (UACC-257): 26.5 µM (inactive)
- GI50 (K562): 29.6 µM (inactive)
- GI50 (RPMI-8226): 18 µM (inactive)
- GI50 (HT-29): 19.5 µM (inactive)
- GI50 (Hs-578T): 21.2 µM (inactive)
- GI50 (IGROV-1): 3.08 µM (inactive)
- GI50 (HOP-92): 27.1 µM (inactive)
- GI50 (Malme-3M): 29.6 µM (inactive)
- GI50 (SK-MEL-5): 17.7 µM (inactive)
- GI50 (BT-549): 19.1 µM (inactive)
- GI50 (M14): 19.8 µM (inactive)
- GI50 (OVCAR-8): 28.6 µM (inactive)
- GI50 (A498): 21.6 µM (inactive)
- GI50 (EKVX): 28.2 µM (inactive)
- GI50 (MDA-MB-231): 19.1 µM (inactive)
- GI50 (NCI-H23): 32 µM (inactive)
- GI50 (SNB-75): 20 µM (inactive)
- GI50 (CCRF-CEM): 5.6 µM (inactive)
- GI50 (MCF7): 7.33 µM (inactive)
- GI50 (NCI-H460): 33.7 µM (inactive)
- GI50 (RXF 393): 18.4 µM (inactive)
- GI50 (HOP-62): 20.1 µM (inactive)
- GI50 (KM12): 15.1 µM (inactive)
- GI50 (PC-3): 28.1 µM (inactive)
- GI50 (SR): 12 µM (inactive)
- GI50 (UO-31): 10.6 µM (inactive)
- GI50 (SF-295): 19 µM (inactive)
- GI50 (U-251): 12.3 µM (inactive)

SMILES: COC(=O)C1CCN(C(=O)OC(C)(C)C)CC1
- GI50 (T47D): > 100 µM (inactive)
- GI50 (OVCAR-3): > 100 µM (inactive)
- GI50 (HCT-15): > 100 µM
- GI50 (DU-145): > 100 µM (inactive)
- GI50 (NCI-H522): > 100 µM (inactive)
- GI50 (MOLT-4): > 100 µM (inactive)
- GI50 (TK-10): > 100 µM (inactive)
- GI50 (MDA-MB-435): > 100 µM (inactive)
- GI50 (CAKI-1): > 100 µM (inactive)
- GI50 (SW-620): > 100 µM (inactive)
- GI50 (A549): > 100 µM (inactive)
- GI50 (UACC-62): > 100 µM (inactive)
- GI50 (MDA-N): > 100 µM (inactive)
- GI50 (HCT-116): > 100 µM (inactive)
- GI50 (SF-268): > 100 µM (inactive)
- GI50 (SK-MEL-28): > 100 µM (inactive)
- GI50 (OVCAR-5): > 100 µM (inactive)
- GI50 (ACHN): > 100 µM (inactive)
- GI50 (SF-539): > 100 µM (inactive)
- GI50 (LOX IMVI): > 100 µM (inactive)
- GI50 (NCI/ADR-RES): > 100 µM (inactive)
- GI50 (786-0): > 100 µM (inactive)
- GI50 (SK-MEL-2): > 100 µM (inactive)
- GI50 (SN12C): > 100 µM (inactive)
- GI50 (COLO 205): > 100 µM (inactive)
- GI50 (SNB-19): > 100 µM (inactive)
- GI50 (OVCAR-4): > 100 µM (inactive)
- GI50 (HCC 2998): > 100 µM (inactive)
- GI50 (HL-60): > 100 µM (inactive)
- GI50 (UACC-257): > 100 µM (inactive)
- GI50 (RPMI-8226): > 100 µM (inactive)
- GI50 (HT-29): > 100 µM (inactive)
- GI50 (Hs-578T): > 100 µM (inactive)
- GI50 (IGROV-1): > 100 µM (inactive)
- GI50 (HOP-92): > 100 µM (inactive)
- GI50 (Malme-3M): > 100 µM (inactive)
- GI50 (SK-MEL-5): > 100 µM (inactive)
- GI50 (BT-549): 0.993 µM (active)
- GI50 (M14): > 100 µM (inactive)
- GI50 (OVCAR-8): > 100 µM (inactive)
- GI50 (A498): > 100 µM (inactive)
- GI50 (EKVX): > 100 µM (inactive)
- GI50 (MDA-MB-231): > 100 µM (inactive)
- GI50 (NCI-H23): > 100 µM (inactive)
- GI50 (SNB-75): > 100 µM (inactive)
- GI50 (CCRF-CEM): > 100 µM (inactive)
- GI50 (MCF7): > 100 µM (inactive)
- GI50 (NCI-H460): > 100 µM (inactive)
- GI50 (HOP-62): > 100 µM (inactive)
- GI50 (KM12): > 100 µM (inactive)
- GI50 (PC-3): > 100 µM (inactive)
- GI50 (SR): > 100 µM (inactive)
- GI50 (UO-31): > 100 µM (inactive)
- GI50 (SF-295): > 100 µM (inactive)
- GI50 (U-251): > 100 µM (inactive)

SMILES: COc1cc2c(c(OC)c1OC)-c1ccc(SC)c(=O)cc1[C@@H](OC(=O)c1ccncc1)CC2
- GI50 (T47D): > 61.7 µM (inactive)
- GI50 (OVCAR-3): < 0.01 µM (active)
- GI50 (HCT-15): < 0.01 µM
- GI50 (DU-145): < 0.01 µM (active)
- GI50 (NCI-H522): < 0.01 µM (active)
- GI50 (MOLT-4): < 0.01 µM (active)
- GI50 (TK-10): 4.92 µM (inactive)
- GI50 (MDA-MB-435): < 0.01 µM (active)
- GI50 (CAKI-1): < 0.01 µM (active)
- GI50 (SW-620): < 0.01 µM (active)
- GI50 (NCI-H226): < 0.01 µM (active)
- GI50 (A549): < 0.01 µM (active)
- GI50 (SK-OV-3): 0.0165 µM (active)
- GI50 (UACC-62): < 0.01 µM (active)
- GI50 (MDA-N): < 0.01 µM (active)
- GI50 (HCT-116): < 0.01 µM (active)
- GI50 (SF-268): < 0.01 µM (active)
- GI50 (OVCAR-5): < 0.01 µM (active)
- GI50 (ACHN): < 0.01 µM (active)
- GI50 (SF-539): < 0.01 µM (active)
- GI50 (LOX IMVI): < 0.01 µM (active)
- GI50 (NCI/ADR-RES): < 0.01 µM (active)
- GI50 (786-0): < 0.01 µM (active)
- GI50 (SK-MEL-2): 0.407 µM (active)
- GI50 (COLO 205): < 0.01 µM (active)
- GI50 (SNB-19): < 0.01 µM (active)
- GI50 (OVCAR-4): 27 µM (inactive)
- GI50 (HCC 2998): < 0.01 µM (active)
- GI50 (UACC-257): < 0.01 µM (active)
- GI50 (K562): < 0.01 µM (active)
- GI50 (RPMI-8226): < 0.01 µM (active)
- GI50 (HT-29): < 0.01 µM (active)
- GI50 (Hs-578T): < 0.01 µM (active)
- GI50 (IGROV-1): < 0.01 µM (active)
- GI50 (HOP-92): 30.1 µM (inactive)
- GI50 (Malme-3M): < 0.01 µM (active)
- GI50 (SK-MEL-5): < 0.01 µM (active)
- GI50 (BT-549): < 0.01 µM (active)
- GI50 (M14): < 0.01 µM (active)
- GI50 (OVCAR-8): < 0.01 µM (active)
- GI50 (A498): < 0.0116 µM (active)
- GI50 (MDA-MB-231): < 0.01 µM (active)
- GI50 (NCI-H23): < 0.01 µM (active)
- GI50 (SNB-75): < 0.01 µM (active)
- GI50 (CCRF-CEM): < 0.01 µM (active)
- GI50 (MCF7): < 0.01 µM (active)
- GI50 (NCI-H460): < 0.01 µM (active)
- GI50 (RXF 393): 7.78 µM (inactive)
- GI50 (KM12): < 0.01 µM (active)
- GI50 (PC-3): < 0.01 µM (active)
- GI50 (SR): < 0.0145 µM (active)
- GI50 (UO-31): < 0.01 µM (active)
- GI50 (SF-295): < 0.01 µM (active)
- GI50 (U-251): < 0.01 µM (active)
